Experimental data from ChEMBL document CHEMBL3885881, “DrugMatrix”.

Species: Rattus norvegicus
Assay type: toxicity, organism-based, Sprague-Dawley
Details: in vivo, po, 24 h, route oral GAVAGE, time 1 day, vehicle .5 % CMC; for ABSOLUTE EOSINOPHIL / ABSOLUTE LYMPHOCYTE / ABSOLUTE MONOCYTE / ABSOLUTE SEGMENTED NEUTROPHIL / BASOPHIL / EOSINOPHIL / ERYTHROCYTE COUNT / HEMATOCRIT / HEMOGLOBIN / LEUKOCYTE COUNT / LYMPHOCYTE / MEAN CORPUSCULAR HEMOGLOBIN / MEAN CORPUSCULAR HEMOGLOBIN CONCENTRATION / MEAN CORPUSCULAR VOLUME / MONOCYTE / NEUTROPHIL / NUCLEATED RED BLOOD CELLS / PLATELET COUNT: tissue Blood; for ALANINE AMINOTRANSFERASE / ALBUMIN / ALKALINE PHOSPHATASE / ASPARTATE AMINOTRANSFERASE / BLOOD UREA NITROGEN / CARBON DIOXIDE / CHLORIDE / CHOLESTEROL / CREATININE / GLUCOSE / LACTATE DEHYDROGENASE / LIPASE / PHOSPHORUS / POTASSIUM / SODIUM / TOTAL BILIRUBIN / TOTAL PROTEIN / URIC ACID: tissue Plasma
[1] = 0 mg/kg, vehicle control, dose level Control

Description: DrugMatrix - Regimen: Single

Question: What does the source list for `COc1ccccc1[N+](=O)[O-]` [2-NITROANISOLE]?
Answer: ABSOLUTE EOSINOPHIL [1]: 150 CELLS/uL; ABSOLUTE LYMPHOCYTE [1]: 13279.83 CELLS/uL; ABSOLUTE MONOCYTE [1]: 654.5 CELLS/uL; ABSOLUTE SEGMENTED NEUTROPHIL [1]: 1565.67 CELLS/uL; BASOPHIL [1]: 0%; EOSINOPHIL [1]: 1%; ERYTHROCYTE COUNT [1]: 5.36 x10E6/uL; HEMATOCRIT [1]: 33.37%; HEMOGLOBIN [1]: 12.52 G/DL; LEUKOCYTE COUNT [1]: 15.65 x10E3/uL; LYMPHOCYTE [1]: 84.83%; MEAN CORPUSCULAR HEMOGLOBIN [1]: 23.4 pg; MEAN CORPUSCULAR HEMOGLOBIN CONCENTRATION [1]: 37.52 G/DL; MEAN CORPUSCULAR VOLUME [1]: 62.32 fL; MONOCYTE [1]: 4.17%; NEUTROPHIL [1]: 10%; NUCLEATED RED BLOOD CELLS [1]: 0 /100WBC; PLATELET COUNT [1]: 1020 x10E3/uL; ALANINE AMINOTRANSFERASE [1]: 49 u/L; ALBUMIN [1]: 4.47 G/DL; ALKALINE PHOSPHATASE [1]: 361.17 u/L; ASPARTATE AMINOTRANSFERASE [1]: 78.67 u/L; BLOOD UREA NITROGEN [1]: 13.17 mg/dL; CARBON DIOXIDE [1]: 29.67 mmol/L; CHLORIDE [1]: 100.83 MEQ/L; CHOLESTEROL [1]: 82.17 mg/dL; CREATININE [1]: 0.15 mg/dL; GLUCOSE [1]: 150.83 mg/dL; LACTATE DEHYDROGENASE [1]: 239.17 u/L; LIPASE [1]: 7.83 u/L; PHOSPHORUS [1]: 13.82 mg/dL; POTASSIUM [1]: 6.62 MEQ/L; SODIUM [1]: 144.25 MEQ/L; TOTAL BILIRUBIN [1]: 0.15 mg/dL; TOTAL PROTEIN [1]: 6.2 G/DL; URIC ACID [1]: 1.57 mg/dL; ABSOLUTE EOSINOPHIL (740 mg/kg, dose level High): 270.67 CELLS/uL; ABSOLUTE LYMPHOCYTE (740 mg/kg, dose level High): 12900.33 CELLS/uL; ABSOLUTE MONOCYTE (740 mg/kg, dose level High): 775.33 CELLS/uL; ABSOLUTE SEGMENTED NEUTROPHIL (740 mg/kg, dose level High): 1353.67 CELLS/uL; BASOPHIL (740 mg/kg, dose level High): 0%; EOSINOPHIL (740 mg/kg, dose level High): 2%; ERYTHROCYTE COUNT (740 mg/kg, dose level High): 5.82 x10E6/uL; HEMATOCRIT (740 mg/kg, dose level High): 35.73%; HEMOGLOBIN (740 mg/kg, dose level High): 13 G/DL; LEUKOCYTE COUNT (740 mg/kg, dose level High): 15.3 x10E3/uL; LYMPHOCYTE (740 mg/kg, dose level High): 84.33%; MEAN CORPUSCULAR HEMOGLOBIN (740 mg/kg, dose level High): 22.4 pg; MEAN CORPUSCULAR HEMOGLOBIN CONCENTRATION (740 mg/kg, dose level High): 36.43 G/DL; MEAN CORPUSCULAR VOLUME (740 mg/kg, dose level High): 61.43 fL; MONOCYTE (740 mg/kg, dose level High): 5%; NEUTROPHIL (740 mg/kg, dose level High): 8.67%; NUCLEATED RED BLOOD CELLS (740 mg/kg, dose level High): 0 /100WBC; PLATELET COUNT (740 mg/kg, dose level High): 1078.67 x10E3/uL; ALANINE AMINOTRANSFERASE (740 mg/kg, dose level High): 63 u/L; ALBUMIN (740 mg/kg, dose level High): 4.53 G/DL; ALKALINE PHOSPHATASE (740 mg/kg, dose level High): 432.67 u/L; ASPARTATE AMINOTRANSFERASE (740 mg/kg, dose level High): 85.67 u/L; BLOOD UREA NITROGEN (740 mg/kg, dose level High): 13 mg/dL; CARBON DIOXIDE (740 mg/kg, dose level High): 29 mmol/L; CHLORIDE (740 mg/kg, dose level High): 102.33 MEQ/L; CHOLESTEROL (740 mg/kg, dose level High): 77.67 mg/dL; CREATININE (740 mg/kg, dose level High): 0.2 mg/dL; GLUCOSE (740 mg/kg, dose level High): 124.33 mg/dL; LACTATE DEHYDROGENASE (740 mg/kg, dose level High): 283.67 u/L; LIPASE (740 mg/kg, dose level High): 9 u/L; PHOSPHORUS (740 mg/kg, dose level High): 12.9 mg/dL; POTASSIUM (740 mg/kg, dose level High): 7.13 MEQ/L; SODIUM (740 mg/kg, dose level High): 144.43 MEQ/L; TOTAL BILIRUBIN (740 mg/kg, dose level High): 0.27 mg/dL; TOTAL PROTEIN (740 mg/kg, dose level High): 6.03 G/DL; URIC ACID (740 mg/kg, dose level High): 1.33 mg/dL
